Target: hTRPV1 (Homo sapiens, UniProt Q8NER1)
Type: cell-based

hTRPV1, sequence (Q8NER1 whole entry): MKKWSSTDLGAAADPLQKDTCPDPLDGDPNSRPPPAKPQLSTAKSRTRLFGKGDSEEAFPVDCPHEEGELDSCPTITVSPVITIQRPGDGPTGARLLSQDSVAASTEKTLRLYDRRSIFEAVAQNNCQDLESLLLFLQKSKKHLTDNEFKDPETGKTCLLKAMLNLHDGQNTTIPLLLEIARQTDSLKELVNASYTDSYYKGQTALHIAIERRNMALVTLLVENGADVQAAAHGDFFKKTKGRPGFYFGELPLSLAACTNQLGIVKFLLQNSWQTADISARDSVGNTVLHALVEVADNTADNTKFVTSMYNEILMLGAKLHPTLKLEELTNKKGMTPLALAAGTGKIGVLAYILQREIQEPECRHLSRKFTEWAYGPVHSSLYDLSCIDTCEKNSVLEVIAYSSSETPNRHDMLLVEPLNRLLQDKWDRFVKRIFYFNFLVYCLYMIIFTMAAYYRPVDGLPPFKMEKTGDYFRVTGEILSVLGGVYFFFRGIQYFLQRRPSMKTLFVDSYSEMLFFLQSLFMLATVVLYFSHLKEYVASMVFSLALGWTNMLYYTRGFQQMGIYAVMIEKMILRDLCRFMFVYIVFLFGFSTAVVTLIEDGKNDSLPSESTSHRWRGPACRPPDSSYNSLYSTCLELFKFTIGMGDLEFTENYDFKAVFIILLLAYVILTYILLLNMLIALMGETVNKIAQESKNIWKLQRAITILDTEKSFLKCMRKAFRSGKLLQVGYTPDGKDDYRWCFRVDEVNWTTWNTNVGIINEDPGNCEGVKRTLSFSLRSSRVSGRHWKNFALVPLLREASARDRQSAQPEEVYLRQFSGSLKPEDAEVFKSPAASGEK

With `CCCCCCCCCCCC(=O)NCCO` [compound 3, lauric acid monoethanolamide] the EC50 was 3.2 µM.

Source: publication PMC11164132 (British journal of pharmacology, 2021)
